From US7141560B2, “Alanine 2,6-dialkoxyphenyl ester derivatives as hypnotics” (Akzo Nobel N.V., priority 2001, dated 2006)

Tested on: mice
Experiment: Hypnotic activity: loss of righting reflex after intravenous injection in mice
Type: in vivo
Conditions: Mus musculus, intravenous injection over 10 seconds, dose causing loss of righting reflex for minimum 30 seconds in 50% of treated mice, read-out: HD50 (hypnotic dose50)
Procedure: The hypnotic potency of the alanine 2,6-dialkoxyphenyl ester derivatives of the invention was determined upon their intravenous administration in mice. The dose required to cause a loss of righting reflex for a minimum period of 30 seconds in 50% of treated mice after intravenous injection over 10 seconds was determined. This dose is termed the HD50 (hypnotic dose50) and is expressed in μmol.kg^−1. These in vivo experiments were carried out as described in detail by Anderson et al., J. Med. Chem. 1997, 40, 1668–1681.

Row | SMILES | ED50
1 | COC[C@H](C(=O)Oc1c(OC)cccc1OC)N1CCCOCC1 [Example 52a, 2R-[4-(Hexahydro-1-oxazepinyl)]-3-methoxypropionic acid, 2,6-dimethoxyphenyl ester] | 16 µmol/kg

Same assay, conditions: intravenous injection over 10 seconds, dose causing loss of righting reflex for minimum 30 seconds in 50% of treated mice

Row | SMILES | HD50 (hypnotic dose50)
2 | COC(=O)CCC(C(=O)Oc1c(OC)cc(C)cc1OC)N1CCCC1.Cl (stereo not drawn) [Example 49a, Pentanedioic acid, 2-(1-pyrrolidinyl)-, 1-(2,6-dimethoxy4-methylphenyl)-ester, 5-methyl ester hydrochloride (1:1) salt] | 50 µmol/kg
3 | COC(=O)CCC(C(=O)Oc1c(OC)cc(C)cc1OC)N1CCCCC1.Cl (stereo not drawn) [Example 49b, Pentanedioic acid, 2-(1-piperidinyl)-, 1-(2,6-dimethoxy-4-methylphenyl)ester, 5-methyl ester hydrochloride (1:1) salt] | 47 µmol/kg
4 | CCOCCN(CCOCC)C(CCC(=O)OC)C(=O)Oc1c(OC)cc(C)cc1OC.Cl (stereo not drawn) [Example 50] | 40 µmol/kg
5 | COCCC(C(=O)Oc1c(OC)cccc1OC)N1CCCOCC1 (stereo not drawn) [Example 51a, (ξ)-2-[4-(Hexahydro-1-oxazepinyl)]-4-methoxybutyric acid,2,6-dimethoxyphenyl ester] | 15 µmol/kg
6 | COCCC(C(=O)Oc1c(OC)cccc1OC)N1CCCOCC1 (stereo not drawn) [Example 51b, (ξ)-2-[4-(Hexahydro-1-oxazepinyl)]-4-methoxybutyric acid,2,6-dimethoxyphenyl ester] | 30 µmol/kg
7 | COCCN(CCOC)C(COC)C(=O)Oc1c(OC)cc(C)cc1OC (stereo not drawn) [Example 51c, (ξ)-2-[N-Bis(2-methoxyethyl)amino]-3-methoxypropionic acid, 2,6-dimethoxy-4-methylphenyl ester] | 24 µmol/kg
8 | COCCN(CCOC)C(COC)C(=O)Oc1c(OC)cc(C)cc1OC (stereo not drawn) [Example 51d, (ξ)-2-[N-Bis(2-methoxyethyl)amino]-3-methoxypropionic acid, 2,6-dimethoxy-4-methylphenyl ester] | 36 µmol/kg
9 | COC[C@@H](C(=O)Oc1c(OC)cccc1OC)N1CCCOCC1 [Example 52b, 2S-[4-(Hexahyro-1-oxazepinyl)]-3-methoxypropionic acid ,2,6-dimethoxyphenyl ester] | 40 µmol/kg
